The assay has as its target T1, GK (glucokinase, residues 12-465) (Homo sapiens, UniProt P35557).
T1 construct: I.D. No. 1 corresponds to residues 12-465 of glucokinase; made in house; host or cells: DH10b-T1r E. coli
T1 sequence (P35557 with tags, fused parts or gaps isoform P35557-2): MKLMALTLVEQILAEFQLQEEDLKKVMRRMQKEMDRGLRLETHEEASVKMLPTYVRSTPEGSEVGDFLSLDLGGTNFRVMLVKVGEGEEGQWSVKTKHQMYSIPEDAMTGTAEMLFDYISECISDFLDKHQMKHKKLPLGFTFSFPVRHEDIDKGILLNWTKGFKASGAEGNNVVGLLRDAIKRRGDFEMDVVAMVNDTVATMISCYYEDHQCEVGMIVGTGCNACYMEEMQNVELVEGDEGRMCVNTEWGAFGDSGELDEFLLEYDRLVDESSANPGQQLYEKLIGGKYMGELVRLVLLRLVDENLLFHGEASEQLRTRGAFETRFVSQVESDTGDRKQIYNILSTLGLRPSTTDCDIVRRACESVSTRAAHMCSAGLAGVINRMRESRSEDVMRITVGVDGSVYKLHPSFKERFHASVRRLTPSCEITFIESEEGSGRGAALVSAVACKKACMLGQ
As to the kind of experiment: enzymatic glucokinase activity assay (ATP consumption, KinaseGlo luminescence). It is filed as biochemical. The note with it: 5 μM ATP, 5 mM Glucose, reported as bins; for EC50: Kact = concentration that displays 50% of the maximal increase in GK activity, 60 min, room temperature, read-out: pKact. In a few lines:
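E. coli-expressed recombinant GK purified by two anion-exchange steps. Reaction in 25 mM Hepes pH 7.2, 10 mM MgCl2, 1 mM DTT, 5 μM ATP, 5 mM glucose, 2% DMSO, 60 min at room temperature. ATP consumption quantified by KinaseGlo luminescence; pKact and % ACTmax derived by non-linear curve fitting.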

Setting [1] is: calculated maximal gain in GK enzyme activity at a saturating concentration of the compound, read-out: % ACTmax.
The mark [2] stands for this setting: read-out: % ACTmax, calculated maximal gain in GK enzyme activity at a saturating concentration of the compound.

Read-outs that look alike come from different tables or passages of the source.

Here are results for 20 compounds from patent US8563730B2, “Pyrazole and fused pyrazole glucokinase activators” (Takeda San Diego, Inc., priority 2008, dated 2013).

In the case of `Cn1ccc(NC(=O)[C@@H](CC2CCOCC2)n2ncc3c(S(=O)(=O)C4CC4)cncc32)n1` [Compound 160, (R)-2-(4-(cyclopropylsulfonyl)-1H-pyrazolo[3,4-c]pyridin-1-yl)-N-(1-methyl-1H-pyrazol-3-yl)-3-(tetrahydro-2H-pyran-4-yl)propanamide], the EC50 is 3.98 to 12.6 µM. For the same compound, the Emax under setting [1] was 90 to 100%.

Take `O=C(Nc1ncc(F)s1)[C@@H](CC1CCOCC1)n1cc(S(=O)(=O)C2CCCC2)cn1` (single isomer, unassigned) [Compound 37, 2-(4-(cyclopentylsulfonyl)-1H-pyrazol-1-yl)-N-(5-fluorothiazol-2-yl)-3-(tetrahydro-2H-pyran-4-yl)propanamide]: the EC50 fell in the range of 1.58 to 3.16 µM. The Emax under setting [1] is at least 111%.

For `O=C(Nc1ncc(Cl)s1)[C@H](CC1CCCC1)n1cc(S(=O)(=O)C2CC2)cn1` [Compound 39, (S)-N-(5-chlorothiazol-2-yl)-3-cyclopentyl-2-(4-(cyclopropylsulfonyl)-1H-pyrazol-1-yl)propanamide], the EC50 fell in the range of 1.58 to 3.16 µM. The Emax under setting [1] was at least 111%.

Consider `Cc1nn(C(CC2CCOCC2)C(=O)Nc2ncc(F)s2)c(C)c1S(=O)(=O)C1CC1` (stereo not shown) [Compound 27, 2-(4-(cyclopropylsulfonyl)-3,5-dimethyl-1H-pyrazol-1-yl)-N-(5-fluorothiazol-2-yl)-3-(tetrahydro-2H-pyran-4-yl)propanamide], for which the EC50 is 1.58 to 3.16 µM. Further, the Emax under setting [1] is at most 90%.

As to `O=C(Nc1ncc(F)s1)[C@@H](CC1CCCC1)n1cc(S(=O)(=O)C2CC2)cn1` [Compound 35, (R)-3-cyclopentyl-2-(4-(cyclopropylsulfonyl)-1H-pyrazol-1-yl)-N-(5-fluorothiazol-2-yl)propanamide], the EC50 is at least 15.8 µM. Also, the Emax under setting [1] is at most 90%.

Turning to `O=C(Nc1ncc(F)s1)[C@H](CC1CCOCC1)n1cc(S(=O)(=O)C2CCCC2)cn1` [Compound 44, (S)-2-(4-(cyclopentylsulfonyl)-1H-pyrazol-1-yl)-N-(5-fluorothiazol-2-yl)-3-(tetrahydro-2H-pyran-4-yl)propanamide], the EC50 was in the range of 0.398 to 1.26 µM. The Emax under setting [1] was at least 111%.

`O=C(Nc1ncc(F)s1)C(CC1CCOCC1)n1ncc2c(S(=O)(=O)C3CC3)c(Br)ccc21` (stereo not shown) [Compound 150, 2-(5-bromo-4-(cyclopropylsulfonyl)-1H-indazol-1-yl)-N-(5-fluorothiazol-2-yl)-3-(tetrahydro-2H-pyran-4-yl)propanamide]: the EC50 fell in the range of 0.398 to 1.26 µM. The Emax under setting [1] is at least 111%.

Turning to `COc1ccc2c(cnn2[C@H](CC2CCOCC2)C(=O)Nc2ncc(F)s2)c1S(=O)(=O)C1CC1` [Compound 81, (R)-2-(4-(cyclopropylsulfonyl)-5-methoxy-1H-indazol-1-yl)-N-(5-fluorothiazol-2-yl)-3-(tetrahydro-2H-pyran-4-yl)propanamide], the EC50 fell in the range of 3.98 to 12.6 µM. Also, the Emax under setting [1] was 101 to 105%.

`O=C1CC[C@@H](C[C@@H](C(=O)Nc2ncc(F)s2)n2cc(S(=O)(=O)C3CC3)cn2)C1` [Compound 55, (S)-2-(4-(cyclopropylsulfonyl)-1H-pyrazol-1-yl)-N-(5-fluorothiazol-2-yl)-3-((S)-3-oxocyclopentyl)propanamide]: the EC50 was in the range of 3.98 to 12.6 µM. Also, the Emax under setting [1] is at most 90%.

Consider `COc1cc(S(=O)(=O)C2CC2)c2cnn([C@@H](CC3CCOCC3)C(=O)Nc3ncc(F)s3)c2c1` [Compound 128, (S)-2-(4-(cyclopropylsulfonyl)-6-methoxy-1H-indazol-1-yl)-N-(5-fluorothiazol-2-yl)-3-(tetrahydro-2H-pyran-4-yl)propanamide], for which the EC50 is at most 0.316 µM. In addition, the Emax under setting [1] was 90 to 100%.

For `O=C(Nc1ncc(Cl)s1)[C@H](CC1CCOCC1)n1ncc2c(S(=O)(=O)C3CC3)cccc21` [Compound 64, (S)-N-(5-chlorothiazol-2-yl)-2-(4-(cyclopropylsulfonyl)-1H-indazol-1-yl)-3-(tetrahydro-2H-pyran-4-yl)propanamide], the EC50 was at most 0.316 µM. In addition, the Emax under setting [1] was at least 111%.

Take `Cn1ccc(NC(=O)[C@@H](CC2CCOCC2)n2ncc3c(S(=O)(=O)C4CC4)cc(C#N)cc32)n1` [Compound 106, (R)-2-(6-cyano-4-(cyclopropylsulfonyl)-1H-indazol-1-yl)-N-(1-methyl-1H-pyrazol-3-yl)-3-(tetrahydro-2H-pyran-4-yl)propanamide]: the EC50 was at least 15.8 µM. In addition, the Emax under setting [1] was 90 to 100%.

Take `O=C(Nc1ncc(Cl)s1)C(CC1CCOCC1)n1cc(NS(=O)(=O)C2CC2)cn1` (stereo not shown) [Compound 9, N-(5-chlorothiazol-2-yl)-2-(4-(cyclopropanesulfonamido)-1H-pyrazol-1-yl)-3-(tetrahydro-2H-pyran-4-yl)propanamide]: the EC50 was in the range of 3.98 to 12.6 µM. Also, the Emax under setting [2] was at most 90%.

For `NC(=O)c1ccc(NC(=O)C(CC2CCOCC2)n2ncc3c(S(=O)(=O)C4CC4)cccc32)nc1` (stereo not shown) [Compound 14, 6-(2-(4-(cyclopropylsulfonyl)-1H-indazol-1-yl)-3-(tetrahydro-2H-pyran-4-yl)propanamido)nicotinamide], the EC50 was at most 0.316 µM. Moreover, the Emax under setting [1] is at least 111%.

Turning to `COc1ccc2c(cnn2[C@H](CC2CCOCC2)C(=O)Nc2cnccn2)c1S(=O)(=O)C1CC1` [Compound 93, (R)-2-(4-(cyclopropylsulfonyl)-5-methoxy-1H-indazol-1-yl)-N-(pyrazin-2-yl)-3-(tetrahydro-2H-pyran-4-yl)propanamide], the EC50 is at least 15.8 µM. Also, under setting [1], the Emax is at most 90%.

For `Nc1cc(S(=O)(=O)C2CC2)c2cnn([C@@H](CC3CCOCC3)C(=O)Nc3cnccn3)c2n1` [Compound 164, (S)-2-(6-amino-4-(cyclopropylsulfonyl)-1H-pyrazolo[3,4-b]pyridin-1-yl)-N-(pyrazin-2-yl)-3-(tetrahydro-2H-pyran-4-yl)propanamide], the EC50 lay within 0.398 to 1.26 µM. The Emax under setting [1] was 106 to 110%.

As to `O=C(Nc1ncc(F)s1)C(CC1CCOCC1)n1cc(S(=O)(=O)C2CC2)cn1` (stereo not shown) [Compound 28, 2-(4-(cyclopropylsulfonyl)-1H-pyrazol-1-yl)-N-(5-fluorothiazol-2-yl)-3-(tetrahydro-2H-pyran-4-yl)propanamide], the EC50 fell in the range of 3.98 to 12.6 µM. Further, the Emax under setting [1] was at least 111%.

`COc1ccc2nc(NC(=O)C(CC3CCOCC3)n3ccc(S(=O)(=O)C4CC4)n3)sc2n1` (stereo not shown) [Compound 1, 2-(3-(cyclopropylsulfonyl)-1H-pyrazol-1-yl)-N-(5-methoxythiazolo[5,4-b]pyridin-2-yl)-3-(tetrahydro-2H-pyran-4-yl)propanamide]: the EC50 is at least 15.8 µM. In addition, the Emax under setting [2] was at most 90%.

Take `O=C(Nc1cnccn1)C(CC1CCOCC1)n1cc2c(S(=O)(=O)C3CC3)cc(Cl)cc2n1` (stereo not shown) [Compound 168, 2-(6-chloro-4-(cyclopropylsulfonyl)-2H-indazol-2-yl)-N-(pyrazin-2-yl)-3-(tetrahydro-2H-pyran-4-yl)propanamide]: the EC50 is at least 15.8 µM. Moreover, the Emax under setting [1] was at most 90%.

Regarding `O=C(Nc1ncc(F)s1)[C@H](CC1CCOCC1)n1ncc2c(S(=O)(=O)C3CC3)cc(O)cc21` [Compound 76, (S)-2-(4-(cyclopropylsulfonyl)-6-hydroxy-1H-indazol-1-yl)-N-(5-fluorothiazol-2-yl)-3-(tetrahydro-2H-pyran-4-yl)propanamide], the EC50 was at most 0.316 µM. In addition, the Emax under setting [1] was 106 to 110%.
